Paper PMC11211886 (Frontiers in Pharmacology, 2024)
Read-outs that look alike come from different tables or passages of the source.

What was measured:
[1] = Caco-2 bidirectional transport permeability; format: in vitro ADME, human; settings: human
Experimental: (§1) The passage number of cells used in this study was 39. Non-specific binding to the device surfaces and the aqueous solubility of test compounds were tested before the transport experiment. […] The integrity of the monolayer was estimated by measuring transepithelial electrical resistance (TEER). Only the monolayers with TEER over 150 Ω were used for the studies.

Caco-2 cell monolayers = test: Caco-2 bidirectional transport permeability; format: in vitro ADME, human
Experimental: as §1

[2] = Metabolic stability in rat liver microsomes; format: in vitro ADME; settings: for CLint scaled at 1 µM: pH 7.4, Predicted CL int, iv vivo
Experimental: FMO was deactivated by heating liver microsomes at 45°C for 5 min. […] (1) metabolic clearance is the major mechanism of clearance; (2) liver is the major organ of clearance; and (3) oxidation is the major metabolic pathway. CLint,in vitro=k / Cmicrosomes , Scaled CLint,in vivo=CLint,in vitro×microsomes yield×liver weight, where Cmicrosomes means the experimental protein concentration (0.5 mg/mL) in the incubation system.

OAT1 = target: T1, OAT1 (Homo sapiens, UniProt Q4U2R8); test: in vitro
T1 sequence (Q4U2R8 1-563): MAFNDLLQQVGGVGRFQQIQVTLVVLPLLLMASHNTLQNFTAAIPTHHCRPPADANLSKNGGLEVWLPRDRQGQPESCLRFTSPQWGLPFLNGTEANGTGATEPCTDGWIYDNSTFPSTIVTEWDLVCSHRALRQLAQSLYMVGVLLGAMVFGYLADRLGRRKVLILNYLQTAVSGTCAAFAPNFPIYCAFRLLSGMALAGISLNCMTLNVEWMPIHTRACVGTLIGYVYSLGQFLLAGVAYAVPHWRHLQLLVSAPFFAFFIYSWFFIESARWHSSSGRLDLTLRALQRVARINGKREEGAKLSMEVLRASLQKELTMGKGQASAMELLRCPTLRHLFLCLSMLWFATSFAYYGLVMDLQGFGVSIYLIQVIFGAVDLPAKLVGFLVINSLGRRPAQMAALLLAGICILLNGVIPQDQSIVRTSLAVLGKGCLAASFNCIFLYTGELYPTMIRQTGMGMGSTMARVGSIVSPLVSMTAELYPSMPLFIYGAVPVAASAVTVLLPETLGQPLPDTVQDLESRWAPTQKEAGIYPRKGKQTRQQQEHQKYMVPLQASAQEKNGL
Experimental: The pre-incubation solutions were removed, and incubation solutions containing the inhibitors and probe substrates (or transport buffer containing an equal volume of vehicle control and probe substrates) were added and incubated at 37°C for 2 min (5 min for OATP1B3). The probe substrate for OAT1 was 4-aminohippuric acid (10 μM), for OAT3 was estrone 3-sulfate (10 μM), for OCT2 was metformin (100 μM), for OATP1B1 was β-estradiol 17-(β-D-glucuronide) (5 μM), for OATP1B3 was β-estradiol 17-(β-D-glucuronide) (10 μM), and for MATE1 and MATE2-K was tetraethylammonium (10 μM). After incubation, cells were washed three times with ice-cold transport buffer (25 mM HEPES, pH 7.4, pH 8.0 for overexpressing MATE1 and MATE2-K HEK293 cells) and lysed in distilled water. The concentrations of probe substrates were determined by LC-MS/MS, and a BCA Kit (Solarbio ®Life Sciences, Beijing, China) was used to determine the protein content in the cell lysate.
where C is the concentration of the drug in the cell lysate (nM), P is the protein concentration of the cell lysate (mg/mL), and T is the incubation time (minute). Uptake ratetest compound is the uptake rate of the substrate in the presence of the test compound. Uptake ratevehicle control is the uptake rate of the substrate in the presence of the vehicle control. Uptake ratepassive is the uptake rate of the substrate in the presence of the positive inhibitor at the top test concentration.

## C[C@H](Nc1ncnc(N)c1C#N)c1cc2ncc(Cl)n2nc1-c1ccccc1 [Amdizalisib]
[1]
  Papp A→B at 30 min, 10 µM: 45.7 ×10⁻⁶ cm/s
  Papp A→B at 60 min, 5 µM: 38.5 ×10⁻⁶ cm/s
  Papp A→B at 60 min, 10 µM: 39.9 ×10⁻⁶ cm/s
  Papp A→B at 60 min, 20 µM: 40.9 ×10⁻⁶ cm/s
  Papp A→B at 60 min, 40 µM: 36.3 ×10⁻⁶ cm/s
  Papp A→B at 60 min, 60 µM: 42.2 ×10⁻⁶ cm/s
  Papp A→B at 90 min, 10 µM: 38.9 ×10⁻⁶ cm/s
  Papp A→B at 120 min, 10 µM: 36.9 ×10⁻⁶ cm/s
  Papp A→B at 150 min, 10 µM: 37.1 ×10⁻⁶ cm/s
  Papp B→A at 30 min, 10 µM: 69.5 ×10⁻⁶ cm/s
  Papp B→A at 60 min, 5 µM: 50.4 ×10⁻⁶ cm/s
  Papp B→A at 60 min, 20 µM: 52.3 ×10⁻⁶ cm/s
  Papp B→A at 60 min, 40 µM: 45.4 ×10⁻⁶ cm/s
  Papp B→A at 60 min, 60 µM: 47.9 ×10⁻⁶ cm/s
  Papp B→A at 60 min, 80 µM: 45.4 ×10⁻⁶ cm/s
  Papp B→A at 90 min, 10 µM: 57.1 ×10⁻⁶ cm/s
  Papp B→A at 120 min, 10 µM: 56 ×10⁻⁶ cm/s
  Papp B→A at 150 min, 10 µM: 55.6 ×10⁻⁶ cm/s
[1]; substrate 80 µM, 60 min
  Papp A→B at 60 min, 80 µM: 47.7 ×10⁻⁶ cm/s
Caco-2 cell monolayers
  Transporter substrate: Not a substrate of P-gp and BCRP
[2]; female rat liver microsomes, normal
  Predicted CL sys: 10.7 mL/min/kg
[2]; female, rat, microsomes
  CLint scaled at 1 µM: 13.3 mL/min/kg
[2]; female, rat, microsomes, pH 7.4, in vitro t1/2
  half-life at 1 µM: 187 min
[2]; male, rat, microsomes
  CLint scaled at 1 µM: 65.9 mL/min/kg
[2]; male, rat, microsomes, pH 7.4, in vitro t1/2
  half-life at 1 µM: 37.9 min
[2]; pH 7.4, male rat liver microsomes, FMO deactivation, read-out: in vitro t1/2
  half-life at 1 µM: 41.7 min
OAT1
  IC50: 4.14 µM
OAT1; OAT1, compound 0.3 μM
  Percentage transported: 96.4%
  Uptake rate: 489±79.6 pmol/mg protein/min
OAT1; OAT1, compound 1 μM
  Percentage transported: 91.6%
  Uptake rate: 467±34.8 pmol/mg protein/min
OAT1; OAT1, compound 3 μM
  Percentage transported: 50.9%
  Uptake rate: 278±37.1 pmol/mg protein/min
OAT1; OAT1, compound 10 μM
  Percentage transported: 33.3%
  Uptake rate: 196±6.18 pmol/mg protein/min
OAT1; OAT1, compound 30 μM
  Percentage transported: 7.47%
  Uptake rate: 76.5±17.7 pmol/mg protein/min
OAT1; OAT1, compound 100 μM
  Percentage transported: -7.21%
  Uptake rate: 8.38±1.24 pmol/mg protein/min
OAT1; human, pH 7.4
  inhibition at 2 min, 0.3 µM: 3.65%
  inhibition at 2 min, 1 µM: 8.44%
  inhibition at 2 min, 3 µM: 49.1%
  inhibition at 2 min, 10 µM: 66.7%
  inhibition at 2 min, 30 µM: 92.5%
  inhibition at 2 min, 100 µM: 107%
OAT1; renal OATs
  calculated R value (OAT1): < 1.1
